The record followed here is patent US12421254B2, “KRAS modulators and uses thereof” (Quanta Therapeutics, Inc., priority 2023, dated 2025).

The target in experiment [1] is GST-tagged KRAS-G12V (2-169) (Homo sapiens, UniProt P01116, G12V). The experiment can be described thus: Nucleotide exchange assay (NEA), SOS-mediated, HTRF, KRAS G12V. It is filed as biochemical. The note with it: Table 4; IC50 extracted at 90 min; 80 nM SOS. Summed up:
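GST-KRAS-G12V (2-169), 0.25 nM, pre-incubated 1 h at RT with compound, then SOS1cat (564-1049) 80 nM and GTP-DY-647P1 150 nM added in HEPES pH 7.3 buffer with MgCl2 and DTT. HTRF via anti-GST Tb cryptate read over 90 min; IC50 from 4-parameter fit at 90 min, blanked to no-SOS reactions.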

In experiment [2] the target is GST-tagged KRAS-G12D (2-169) (Homo sapiens, UniProt P01116, G12D). The experiment can be described thus: Nucleotide exchange assay (NEA), SOS-mediated, HTRF, KRAS G12D. It is filed as biochemical. Particulars: Table 4; IC50 extracted at 30 min; 20 nM SOScat; read-out: NEA G12D IC50. In a few lines:
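Compound preincubated 1 h at RT with 0.25 nM GST-KRAS-G12D (2-169) and anti-GST Tb donor, then 20 nM SOS1cat (564-1049) and 150 nM GTP-DY-647P1 added; pH 7.3 HEPES buffer with MgCl2 and DTT. HTRF monitored at RT; % inhibition versus DMSO and no-SOS blank, 4-parameter IC50 taken at 30 min.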

In experiment [3] the test system is phospho-ERK in SW620 (KRAS-G12V) cells. Put plainly: pERK In Cell Western (ICW) assay (Method B), SW620. Type of experiment: cell-based. Particulars: Homo sapiens, SW-620, 3 h, Table 4. Summed up:
(§1)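 SW620 (KRAS-G12V), GP2D (KRAS-G12D) and AGS cells, seeded overnight, were exposed to compounds (½-log, 9-point) for 3 h at 37°C, then fixed and stained for phospho-ERK. Infrared imaging; pERK normalized to DRAQ5 DNA stain, expressed as percent of blank control, IC50 by 4-parameter fit.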

For experiment [4], the system named is phospho-ERK in GP2D (KRAS-G12D) cells. The experiment can be described thus: pERK In Cell Western (ICW) assay (Method B), GP2D. It is filed as cell-based. The note with it: GP2d, 3 h, Table 4. Summed up:
as §1

The structures appear in SMILES notation.

Sequence of GST-tagged KRAS-G12V (2-169) (P01116 2-169 isoform P01116-2 G12V): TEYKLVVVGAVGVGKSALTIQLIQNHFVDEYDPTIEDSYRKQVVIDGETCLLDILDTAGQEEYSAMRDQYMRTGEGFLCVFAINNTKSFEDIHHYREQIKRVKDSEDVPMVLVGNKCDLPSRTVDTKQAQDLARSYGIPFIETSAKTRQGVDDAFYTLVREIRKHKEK
Sequence of GST-tagged KRAS-G12D (2-169) (P01116 2-169 isoform P01116-2 G12D): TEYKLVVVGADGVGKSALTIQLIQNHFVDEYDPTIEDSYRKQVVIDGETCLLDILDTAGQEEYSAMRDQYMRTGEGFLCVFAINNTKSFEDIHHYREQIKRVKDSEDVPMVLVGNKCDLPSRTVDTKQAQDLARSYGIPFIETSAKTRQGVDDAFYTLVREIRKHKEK

With `N#Cc1c(N)sc2c1C1(CC2)CN(c2nc(OCC3(CN4CCOCC4)CC3)nc(N3CCCC(O)(C(F)F)C3)n2)C1` (stereo not drawn) [Compound 106, 2-amino-1′-[4-[3-(difluoromethyl)-3-hydroxy-1-piperidyl]-6-[[1-(morpholinomethyl)cyclopropyl]methoxy]-1,3,5-triazin-2-yl]spiro[5,6-dihydrocyclopenta[b]thiophene-4,3′-azetidine]-3-carbonitrile], the IC50 (as a rule, the midpoint of a concentration-inhibition curve) in experiment [1] fell in the range of 0.01 to 0.1 µM; in experiment [2], 0.01 to 0.1 µM; in experiment [3], 1 to 20 µM; in experiment [4], 0.1 to 1 µM.

On to `N#Cc1c(N)sc2c1C1(CC2)CN(c2nc(OC[C@@]34CCCN3C[C@H](F)C4)nc(N(CCO)Cc3cccnc3N)n2)C1` [Compound 107, 2-amino-1′-[4-[(2-amino-3-pyridyl)methyl-(2-hydroxyethyl)amino]-6-[[(2R,8S)-2-fluoro-1,2,3,5,6,7-hexahydropyrrolizin-8-yl]methoxy]-1,3,5-triazin-2-yl]spiro[5,6-dihydrocyclopenta[b]thiophene-4,3′-azetidine]-3-carbonitrile], for which the concentration for half-maximal inhibition (IC50) in experiment [1] is less than 0.01 µM; in experiment [2] it was less than 0.01 µM; in experiment [3] it was 0.01 to 0.1 µM; in experiment [4], 0.01 to 0.1 µM.

Turning to `CC(c1cncnc1N)N(C)c1nc(OC[C@@]23CCCN2C[C@H](F)C3)nc(N2CC3(CCc4sc(N)c(C#N)c43)C2)n1` (stereo partly drawn) [Compound 108, 2-amino-1′-[4-[1-(4-aminopyrimidin-5-yl)ethyl-methyl-amino]-6-[[(2R,8S)-2-fluoro-1,2,3,5,6,7-hexahydropyrrolizin-8-yl]methoxy]-1,3,5-triazin-2-yl]spiro[5,6-dihydrocyclopenta[b]thiophene-4,3′-azetidine]-3-carbonitrile], the half-maximal inhibitory concentration (IC50) in experiment [1] is less than 0.01 µM; in experiment [2] it was less than 0.01 µM; in experiment [3], 0.01 to 0.1 µM; in experiment [4] it was 0.01 to 0.1 µM.

As to `CC(c1ccnnc1N)N(C)c1nc(OC[C@@]23CCCN2C[C@H](F)C3)nc(N2CC3(CCc4sc(N)c(C#N)c43)C2)n1` (stereo partly drawn) [Compound 109, 2-amino-1′-[4-[1-(3-aminopyridazin-4-yl)ethyl-methyl-amino]-6-[[(2R,8S)-2-fluoro-1,2,3,5,6,7-hexahydropyrrolizin-8-yl]methoxy]-1,3,5-triazin-2-yl]spiro[5,6-dihydrocyclopenta[b]thiophene-4,3′-azetidine]-3-carbonitrile], the IC50 in experiment [1] was less than 0.01 µM; in experiment [2], less than 0.01 µM; in experiment [3], 0.01 to 0.1 µM; in experiment [4] it was 0.1 to 1 µM.

Take `CC1(C#N)CCCCN(c2nc(OC[C@@]34CCCN3C[C@H](F)C4)nc(N3CC4(CCc5sc(N)c(C#N)c54)C3)n2)C1` (stereo partly drawn) [Compound 111, 2-amino-1′-[4-(3-cyano-3-methyl-azepan-1-yl)-6-[[(2R,8S)-2-fluoro-1,2,3,5,6,7-hexahydropyrrolizin-8-yl]methoxy]-1,3,5-triazin-2-yl]spiro[5,6-dihydrocyclopenta[b]thiophene-4,3′-azetidine]-3-carbonitrile]: the IC50 was less than 0.01 µM in experiment [1], less than 0.01 µM in experiment [2], 0.1 to 1 µM in experiment [3] and 0.1 to 1 µM in experiment [4].

As for `C[C@@]1(O)CCCN(c2nc(OC[C@@]34CCCN3C[C@H](F)C4)nc(N3CC4(C3)c3c(sc(N)c3C#N)CC4(F)F)n2)C1` [Compound 114, 2-amino-5,5-difluoro-1′-[4-[[(2R,8S)-2-fluoro-1,2,3,5,6,7-hexahydropyrrolizin-8-yl]methoxy]-6-[(3R)-3-hydroxy-3-methyl-1-piperidyl]-1,3,5-triazin-2-yl]spiro[6H-cyclopenta[b]thiophene-4,3′-azetidine]-3-carbonitrile], the IC50 is less than 0.01 µM in experiment [1], less than 0.01 µM in experiment [2], 0.1 to 1 µM in experiment [3] and 0.01 to 0.1 µM in experiment [4].
